Values joined by “and” are separate entries in the source; they are usually repeats but may differ in a detail not shown here. Equal entries are not always repeated. Where two headings read alike, the source gives them in different places.
Experiments:
[1] = target: T1, VEEV Mac (Venezuelan equine encephalitis virus, UniProt P27282); test: biochemical; format: binding
[2] = target: T2, CHIKV Mac (Chikungunya virus, UniProt Q8JUX6); test: biochemical; format: binding
[3] = target: T3, MacroD2 (Homo sapiens, UniProt A1Z1Q3); test: IC50 curves of binding to MacroD2 (Figure S2); settings: Figure S2, fitted
T3 construct: made in house
T3 sequence (A1Z1Q3 1-425): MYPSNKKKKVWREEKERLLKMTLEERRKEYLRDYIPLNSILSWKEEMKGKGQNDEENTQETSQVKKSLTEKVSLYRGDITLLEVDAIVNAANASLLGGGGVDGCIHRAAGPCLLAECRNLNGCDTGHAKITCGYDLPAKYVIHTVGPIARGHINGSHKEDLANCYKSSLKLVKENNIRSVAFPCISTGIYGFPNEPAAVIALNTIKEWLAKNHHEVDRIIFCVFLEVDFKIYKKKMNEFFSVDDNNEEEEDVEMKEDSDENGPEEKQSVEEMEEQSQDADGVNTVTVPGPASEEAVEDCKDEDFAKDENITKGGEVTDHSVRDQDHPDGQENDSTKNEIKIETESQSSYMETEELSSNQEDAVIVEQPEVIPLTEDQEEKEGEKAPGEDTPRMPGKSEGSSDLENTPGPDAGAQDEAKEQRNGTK

[4] = target: T4, MacroD1 (Homo sapiens, UniProt Q9BQ69); test: IC50 curves of binding to MacroD1 (Figure S2); settings: Figure S2, fitted
T4 construct: made in house
T4 sequence (Q9BQ69 1-325): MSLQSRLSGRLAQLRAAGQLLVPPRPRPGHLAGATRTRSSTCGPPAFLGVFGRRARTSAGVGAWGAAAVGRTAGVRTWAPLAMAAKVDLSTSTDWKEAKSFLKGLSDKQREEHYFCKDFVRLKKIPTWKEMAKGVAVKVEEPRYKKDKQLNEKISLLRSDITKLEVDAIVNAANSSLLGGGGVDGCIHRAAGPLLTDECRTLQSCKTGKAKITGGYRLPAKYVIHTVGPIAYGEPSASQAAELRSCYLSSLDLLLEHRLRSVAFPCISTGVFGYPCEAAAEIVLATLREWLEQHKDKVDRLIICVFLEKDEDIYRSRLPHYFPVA

[5] = target: T5, SARS-CoV-2 Mac1 (Severe acute respiratory syndrome coronavirus 2, UniProt P0DTD1); test: biochemical; format: binding
[6] = target: T6, MERS-CoV Mac1 (Middle East respiratory syndrome-related coronavirus, UniProt K9N7C7); test: biochemical; format: binding
[7] = target: T1, VEEV Mac; test: biochemical; format: binding; remark: listed apart in the source
[8] = target: T5, SARS-CoV-2 Mac1; test: biochemical; format: binding; remark: listed apart in the source
[9] = target: T2, CHIKV Mac; test: biochemical; format: binding; remark: listed apart in the source
[10] = target: T6, MERS-CoV Mac1; test: biochemical; format: binding; remark: listed apart in the source
[11] = target: T5, SARS-CoV-2 Mac1; settings: cited from earlier work

T1 sequence (P27282 1330-1489 limits assumed): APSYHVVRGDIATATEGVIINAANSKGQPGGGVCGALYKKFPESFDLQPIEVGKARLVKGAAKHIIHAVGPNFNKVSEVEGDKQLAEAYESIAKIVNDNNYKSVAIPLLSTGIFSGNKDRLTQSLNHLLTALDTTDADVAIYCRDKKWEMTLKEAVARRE
T6 sequence (K9N7C7 1110-1276 limits assumed): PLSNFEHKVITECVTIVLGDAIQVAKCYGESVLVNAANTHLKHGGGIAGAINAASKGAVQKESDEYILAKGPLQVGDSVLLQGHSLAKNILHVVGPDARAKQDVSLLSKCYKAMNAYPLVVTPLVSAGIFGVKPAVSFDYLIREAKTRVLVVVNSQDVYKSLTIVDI
T2 sequence (Q8JUX6 1334-1493 limits assumed): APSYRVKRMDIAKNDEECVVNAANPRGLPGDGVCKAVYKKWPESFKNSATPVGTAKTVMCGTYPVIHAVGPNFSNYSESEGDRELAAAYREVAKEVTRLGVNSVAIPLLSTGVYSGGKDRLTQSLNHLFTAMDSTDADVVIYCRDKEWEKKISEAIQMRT

For `N#CC1(c2ccc3c(N)ncnn23)OC(COP(=O)(O)OP(=O)(O)OCC2OC(O)C(O)C2O)C(O)C1O` (stereo not shown) [NDPr], the IC50 [1] was 510 nM, the IC50 [2] was 920 nM and the IC50 [3] was > 10000 nM. For the same compound, the IC50 [4] was > 10000 nM, the IC50 [5] was 800 nM and 170 nM and 290 nM and the IC50 [6] was 2900 nM.

In the case of `Nc1ncnc2c1ncn2[C@@H]1O[C@H](COP(=O)(O)OP(=O)(O)OC[C@H]2O[C@H](Oc3ccccc3)[C@H](O)[C@@H]2O)[C@@H](O)[C@H]1O` [Ph-ADPr], the IC50 [1] is reported as 7300 nM, the IC50 [2] is reported as 126000 nM and the IC50 [5] is reported as 1900 nM and 730 nM and 1500 nM. For the same compound, the IC50 [6] was 1800 nM.

In the case of `N#C[C@@]1(c2ccc3c(N)ncnn23)O[C@H](COP(=O)(O)OP(=O)(O)OC[C@H]2O[C@H](Oc3ccccc3)[C@H](O)[C@@H]2O)[C@@H](O)[C@H]1O` [Ph-NDPr], the IC50 [1] is reported as 220 nM, the IC50 [2] is reported as 9300 nM and the “fold better IC50 than ADPr” value [5] is reported as 6000 fold. For the same compound, the “fold better IC50 than NDPr” value [5] was 100 fold, the “fold better IC50 than Ph-ADPr” value [5] was 500 fold and the IC50 [6] was 460 nM.

Work on `CN(C)c1ccc2c(c1)Oc1cc(N(C)C)ccc1C21OC(=O)c2cc(C(=O)NCCCCCCNC(=O)CCc3cn([C@H]4O[C@H](COP(=O)(O)OP(=O)(O)OC[C@H]5O[C@@H](n6cnc7c(N)ncnc76)[C@H](O)[C@@H]5O)[C@@H](O)[C@H]4O)nn3)ccc21` [TAMRA-ADPr, reference compound] yielded a Kd [7] of 1700 nM, a Kd ([8]; Kd) of 2100 nM and a Kd [9] of 7200 nM. The Kd [10] was 830 nM.

For `CN(C)c1ccc2c(c1)Oc1cc(N(C)C)ccc1C21OC(=O)c2cc(C(=O)NCCCCCCNC(=O)CCc3cn([C@H]4O[C@H](COP(=O)(O)OP(=O)(O)OC[C@H]5O[C@@](C#N)(c6ccc7c(N)ncnn67)[C@H](O)[C@@H]5O)[C@@H](O)[C@H]4O)nn3)ccc21` [TAMRA-NDPr], the Kd [7] was 39 nM, the “fold more potent than TAMRA-ADPr” value [8] was “over 100 fold” and the Kd ([8]; Kd) was 15 nM. The “fold affinity improvement over TAMRA-ADPr” value [9] was “more than 30 fold”, the Kd [9] was 208 nM and 210 nM and the Kd [10] was 130 nM.

With `CN(C)c1ccc2c(c1)Oc1cc(N(C)C)ccc1C21OC(=O)c2cc(C(=O)NCCCCCCNC(=O)CCc3cn(Cc4ccc(O[C@H]5O[C@H](COP(=O)(O)OP(=O)(O)OC[C@H]6O[C@@](C#N)(c7ccc8c(N)ncnn78)[C@H](O)[C@@H]6O)[C@@H](O)[C@H]5O)cc4)nn3)ccc21` [TAMRA-Ph-NDPr] the Kd [7] was 10 nM, the “fold more potent than TAMRA-ADPr” value [8] was “over 100 fold” and the Kd ([8]; Calculated Kd) was 2.3 nM. It also gave a Kd ([8]; Kd) of 5.3 nM, a Kd [9] of 810 nM and a Kd [10] of 11 nM.

For `Nc1ncnc2c1ncn2C1OC(COP(=O)(O)OP(=O)(O)OCC2OC(Oc3ccc4c(C(F)(F)F)cc(=O)oc4c3)C(O)C2O)C(O)C1O` (stereo not shown) [TFMU-ADPr], the IC50 [11] is listed as 590 nM and the “fold more potent than ADPr” value [11] is listed as > 20 fold.

Reference: article PMC11106745 (ACS Chemical Biology, 2024)
